Key:
Format in all cases: physicochemical
Hygroscopic test = settings: for Hygroscopic (moisture absorption) stability compared with the amorphous body: result in words; for Ratio of change of weight: 25° C., three days
Protocol: (§1) As test substances, the V type crystal (Example 1), the VI type crystal (Example 2) and the amorphous body (Comparative example 1) were used.
Test substances were allowed to stand at 25° C. for three days under 7, 11, 22, 33 and 57% relative humidity, the content of moisture was measured according to Japanese pharmacopoeia, general tests, water determination method (Karl Fischer's method) and the changes of weight were calculated.

Dissolution test = settings: for Dissolution compared with the amorphous body: result in words; for Dissolution time: 2.2 g in injectable water 10 mL, shaken, complete dissolution by unaided eye, mean of three, sodium monohydrate
Protocol: as §1
Test substance 2.2 g was put in a C2 vial made by Daiichi Glass Co., Ltd., injectable water 10 mL was added to the vial, the vial was fixed laterally and was shaken by MRK incubator-shaker (4 cm of shaking width, 48 times/minute of shaking rate).
Complete dissolution was judged by an unaided eye, and the length of time to need for the complete dissolution was measured.
The test was carried out at three times respectively, and those mean values were assumed to the dissolution time.

[1] = Coloration stability test (storage at 60° C.); settings: for Coloration stability of exterior appearance: 60° C. storage, result in words
Protocol: as §1
Test substance 2.2 g was put in a C2 vial made by Daiichi Glass Co., Ltd., and after the vial was filled with nitrogen gas, the vial was stored at 60° C. After the initiation of the test, the color difference (ΔE), degree of whiteness (W) and yellowness (YI) of each test substances were measured by a color-difference meter at 1 week, 2 weeks and 4 weeks later.

[2] = Purity stability test (storage at 60° C.); settings: for Purity stability: 60° C. storage, result in words
Protocol: as §1
Test substance 2.2 g was put in a C2 vial made by Daiichi Glass Co., Ltd., and after the vial was filled with nitrogen gas, the vial was stored at 60° C. After the initiation of the test, the purity of each test substances was measured by high-performance liquid chromatographic method at 1 week, 2 weeks and 4 weeks later (a notice of the 340th Apr. 4, 2001 by Ministry of Health and Welfare medicinal safe directors of bureaus).

[3] = Light exposure stability test; settings: D65 lamp, 25° C., 1.20 million lx·hr
[4] = Light exposure stability test; settings: for By-product I / Piperacillin / Total amount of relative substances: Initiation of test
Protocol: As test substances, the VI type crystal (Example 2) and the amorphous body (Comparative example 1) were used.
Test substance 2.2 g was put in a C2 vial made by Daiichi Glass Co., Ltd., and after the vial was filled with nitrogen gas, the vial was radiated ([…] 1×/hr) with D65 lamp (FLR20S-D-EDL-D65/M) at 25° C.
After the initiation of the test and the radiation of […] 1×/hr, the purity of each test substances was measured by high-performance liquid chromatographic method (a notice of the 340th Apr. 4, 2001 by Ministry of Health and Welfare medicinal safe directors of bureaus).

[5] = 60° C., 1 week, sodium monohydrate
[6] = 60° C., 2 weeks, sodium monohydrate
[7] = 60° C., 4 weeks, sodium monohydrate
[8] = Initiation of test, sodium monohydrate
[9] = 60° C., 1 week, nitrogen-filled vial, sodium monohydrate
[10] = 60° C., 2 weeks, nitrogen-filled vial, sodium monohydrate
[11] = 60° C., 4 weeks, nitrogen-filled vial, sodium monohydrate
[12] = 7% relative humidity, sodium monohydrate
[13] = 11% relative humidity, sodium monohydrate
[14] = 22% relative humidity, sodium monohydrate
[15] = 33% relative humidity, sodium monohydrate
[16] = 57% relative humidity, sodium monohydrate
[17] = 60° C., 1 week, nitrogen-filled vial
[18] = 60° C., 2 weeks, nitrogen-filled vial
[19] = 60° C., 4 weeks, nitrogen-filled vial

CCN1CCN(C(=O)N[C@@H](C(=O)N[C@@H]2C(=O)N3[C@@H]2SC(C)(C)[C@@H]3C(=O)O)c2ccccc2)C(=O)C1=O [III type crystal, piperacillin sodium monohydrate]
Hygroscopic (moisture absorption) stability compared with the amorphous body (Hygroscopic test; sodium monohydrate): superior in hygroscopic stability to the amorphous body
Dissolution compared with the amorphous body (Dissolution test): dissolved in a short period of time than the amorphous body

CCN1CCN(C(=O)N[C@@H](C(=O)N[C@@H]2C(=O)N3[C@@H]2SC(C)(C)[C@@H]3C(=O)O)c2ccccc2)C(=O)C1=O [Example 2, piperacillin sodium monohydrate]
Coloration stability of exterior appearance [1]: stable
Color difference (ΔE) [1, 5]: 0.39
Degree of whiteness (W) [1, 5]: 95.64
Degree of yellowness (YI) [1, 5]: 1.35
Color difference (ΔE) [1, 6]: 0.54
Degree of whiteness (W) [1, 6]: 95.60
Degree of yellowness (YI) [1, 6]: 1.64
Color difference (ΔE) [1, 7]: 0.79
Degree of whiteness (W) [1, 7]: 95.57
Degree of yellowness (YI) [1, 7]: 2.02
Degree of whiteness (W) [1, 8]: 95.94
Degree of yellowness (YI) [1, 8]: 0.85
Purity stability [2]: stable
By-product I [2, 9]: 0.07
Decomposition product I [2, 9]: 0.01
Piperacillin [2, 9]: 99.82
By-product I [2, 10]: 0.11
Decomposition product I [2, 10]: 0.02
Piperacillin [2, 10]: 99.75
By-product I [2, 11]: 0.11
Decomposition product I [2, 11]: 0.04
Piperacillin [2, 11]: 99.73
Decomposition product I ([2]; Initiation of test): Not detected
By-product I [2, 8]: 0.02
Piperacillin [2, 8]: 99.94
Ratio of change of weight (Hygroscopic test; [12]): 1.16 w/w %
Ratio of change of weight (Hygroscopic test; [13]): 1.54 w/w %
Ratio of change of weight (Hygroscopic test; [14]): 3.14 w/w %
Ratio of change of weight (Hygroscopic test; [15]): 3.98 w/w %
Ratio of change of weight (Hygroscopic test; [16]): 5.28 w/w %
Hygroscopic (moisture absorption) stability compared with the amorphous body (Hygroscopic test; listed as VI type crystal, sodium monohydrate): superior in the moisture absorption stability to the amorphous body
Dissolution time (Dissolution test): 50 s
Dissolution compared with the amorphous body (Dissolution test): dissolved in a short period of time than the amorphous body
By-product I [3]: 0.14
Piperacillin [3]: 99.73
Total amount of relative substances [3]: 0.27
By-product I [4]: 0.15
Piperacillin [4]: 99.81
Total amount of relative substances [4]: 0.19
Light exposure stability ([4]; result in words): stable

CCN1CCN(C(=O)N[C@@H](C(=O)N[C@@H]2C(=O)N3[C@@H]2SC(C)(C)[C@@H]3C(=O)O)c2ccccc2)C(=O)C1=O [Example 1, piperacillin sodium monohydrate]
Coloration stability of exterior appearance [1]: stable
Color difference (ΔE) [1, 5]: 0.60
Degree of whiteness (W) [1, 5]: 96.64
Degree of yellowness (YI) [1, 5]: 1.77
Color difference (ΔE) [1, 6]: 0.69
Degree of whiteness (W) [1, 6]: 96.55
Degree of yellowness (YI) [1, 6]: 1.96
Color difference (ΔE) [1, 7]: 1.33
Degree of whiteness (W) [1, 7]: 96.20
Degree of yellowness (YI) [1, 7]: 3.03
Degree of whiteness (W) [1, 8]: 96.45
Degree of yellowness (YI) [1, 8]: 0.94
Purity stability [2]: stable
By-product I [2, 9]: 0.21
Decomposition product I [2, 9]: 0.03
Piperacillin [2, 9]: 99.66
By-product I [2, 10]: 0.33
Decomposition product I [2, 10]: 0.08
Piperacillin [2, 10]: 99.37
By-product I [2, 11]: 0.59
Decomposition product I [2, 11]: 0.26
Piperacillin [2, 11]: 98.62
Decomposition product I ([2]; Initiation of test): Not detected
By-product I [2, 8]: 0.04
Piperacillin [2, 8]: 99.92
Ratio of change of weight (Hygroscopic test; [12]): 0 w/w %
Ratio of change of weight (Hygroscopic test; [13]): 0.93 w/w %
Ratio of change of weight (Hygroscopic test; [14]): 3.18 w/w %
Ratio of change of weight (Hygroscopic test; [15]): 4.77 w/w %
Ratio of change of weight (Hygroscopic test; [16]): 8.43 w/w %
Hygroscopic (moisture absorption) stability compared with the amorphous body (Hygroscopic test; listed as V type crystal, sodium monohydrate): superior in the moisture absorption stability to the amorphous body
Dissolution time (Dissolution test): 43 s
Dissolution compared with the amorphous body (Dissolution test): dissolved in a short period of time than the amorphous body

CCN1CCN(C(=O)N[C@@H](C(=O)N[C@@H]2C(=O)N3[C@@H]2SC(C)(C)[C@@H]3C(=O)[O-])c2ccccc2)C(=O)C1=O.[Na+] [Comparative example 1, piperacillin sodium]
Color difference (ΔE) ([1]; 60° C., 1 week): 2.76
Degree of whiteness (W) ([1]; 60° C., 1 week): 94.66
Degree of yellowness (YI) ([1]; 60° C., 1 week): 6.51
Color difference (ΔE) ([1]; 60° C., 2 weeks): 4.27
Degree of whiteness (W) ([1]; 60° C., 2 weeks): 93.29
Degree of yellowness (YI) ([1]; 60° C., 2 weeks): 8.97
Color difference (ΔE) ([1]; 60° C., 4 weeks): 5.73
Degree of whiteness (W) ([1]; 60° C., 4 weeks): 91.87
Degree of yellowness (YI) ([1]; 60° C., 4 weeks): 11.25
Degree of whiteness (W) ([1]; Initiation of test): 96.86
Degree of yellowness (YI) ([1]; Initiation of test): 2.17
By-product I [2, 17]: 0.80
Decomposition product I [2, 17]: 0.13
Piperacillin [2, 17]: 98.27
By-product I [2, 18]: 0.97
Decomposition product I [2, 18]: 0.17
Piperacillin [2, 18]: 98.05
By-product I [2, 19]: 1.21
Decomposition product I [2, 19]: 0.30
Piperacillin [2, 19]: 97.04
By-product I ([2]; Initiation of test): 0.22
Decomposition product I ([2]; Initiation of test): 0.01
Piperacillin ([2]; Initiation of test): 99.51
Ratio of change of weight (Hygroscopic test; 7% relative humidity): 2.20 w/w %
Ratio of change of weight (Hygroscopic test; 11% relative humidity): 3.12 w/w %
Ratio of change of weight (Hygroscopic test; 22% relative humidity): 4.99 w/w %
Ratio of change of weight (Hygroscopic test; 33% relative humidity): 6.78 w/w %
Ratio of change of weight (Hygroscopic test; 57% relative humidity): 11.03 w/w %
By-product I [3]: 0.31
Piperacillin [3]: 98.86
Total amount of relative substances [3]: 1.14
By-product I [4]: 0.23
Piperacillin [4]: 99.10
Total amount of relative substances [4]: 0.90
